{"source": "patent US20230077104A1", "about": "“L-SEPIAPTERIN AND METHODS OF USE FOR TREATING DISEASES AND DISORDERS” (THE UNITED STATES GOVERNMENT AS REPRESENTED BY THE …, priority 2020, published 2023)", "key": {"[1]": {"target": "p38α (Homo sapiens, UniProt Q16539)", "sequence (Q16539 whole entry)": "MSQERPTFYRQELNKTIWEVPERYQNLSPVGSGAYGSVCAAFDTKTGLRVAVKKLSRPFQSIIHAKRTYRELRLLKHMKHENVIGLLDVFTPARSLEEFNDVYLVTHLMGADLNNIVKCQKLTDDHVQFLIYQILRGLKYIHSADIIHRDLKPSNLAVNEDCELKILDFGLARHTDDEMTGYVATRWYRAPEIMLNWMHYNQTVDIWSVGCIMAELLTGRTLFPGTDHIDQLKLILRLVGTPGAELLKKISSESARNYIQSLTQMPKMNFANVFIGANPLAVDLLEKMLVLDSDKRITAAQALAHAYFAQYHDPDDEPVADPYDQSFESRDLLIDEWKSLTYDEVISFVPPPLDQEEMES", "settings": "cited from earlier work"}, "[2]": {"tested_on": "HRGECs / neutrophils", "assay": "Neutrophil migration to conditioned media of SLE serum-treated HRGECs, by dose of the patients' medication", "type": "cell-based, human", "settings": "serum of SLE patients on differing doses", "protocol": "HRGECs were plated at 4×10^4 cells per well of a 48-well fibronectin-coated plate in complete growth media at 37° C. with 5% CO2. On confluence, cells were washed three times in ECM. Cells were then cultured with 10% serum (SLE or control) in ECM for 3 hours and then washed three times in ECM. Cells were serum starved overnight in ECM. The resulting conditioned media (CM) was then collected and passed through a 0.2 μm pore membrane to remove any cellular debris and frozen at −80° C. for later use.\nTranswell membrane chambers with 3 μm pores from a 96-well Migration Plate (Corning, Corning, N.Y., USA) were equilibrated in RPMI for 1 hour at 37° C. Then RPMI was removed. CM or negative (CM from serum-free treatment)/positive (10^−7 M interleukin (IL)-8 (R&D Systems, Minneapolis, Minn., USA)) controls were added to the 96-well black-walled receiver wells (Corning); 1.5×10^5 neutrophils in ECM were then added to the upper chamber of each insert and incubated for 1 hour to allow for neutrophil migration toward the conditioned medium. Cells that migrated through the membrane into the CM were then labelled with Calcein AM and incubated for 1 hour at 37° C. as described above. Fluorescence intensity was then measured from the bottom of the plate at 485 nm excitation, 520 nm emission using a fluorescence microplate reader (Biotek HT Synergy). A standard curve of Calcein AM-labelled neutrophils (using 1.5×10^5, 1.0×10^5, 5.0×10^4, 2.5×10^4, 1.25×10^4, 0.625×10^4 and 0 neutrophils) was created and fluorescence intensity was quantified on the microplate reader. The linear equation was then calculated and fluorescence intensity of samples could then be input into the linear equation to determine neutrophil cell number. The fluorescence intensity of migrated neutrophils in the lower chamber was measured as described (Jones Buie et al., Lupus Sci Med 2019; 6:e000294). All values were normalized to untreated controls."}, "[3]": {"tested_on": "HRGECs / neutrophils", "assay": "Neutrophil adhesion to SLE serum-treated HRGECs, by dose of the patients' medication", "type": "cell-based, human", "settings": "serum of SLE patients on differing doses", "protocol": "HRGECs were cultured in 48 well fibronectin-coated plates at 80 000 cells per well in complete growth media until confluent. HRGECs were washed, serum starved for 1 hour in ECM supplemented with 0.5% FBS, washed again. Treatments consisting of ECM only, 2.5% serum (lupus or control) in ECM or 100 ng/mL TNF-alpha (Thermo Fisher Scientific) (positive control) in ECM were added to the HRGECs, and cells underwent incubation for 3 hours at 37° C. HRGECs were then washed three times with RPMI-1640 (without phenol red); 6×10^5 Calcein AM-labelled neutrophils were added to each well of the treated HRGECs. Cells were incubated for 20 min at 37° C. and washed five times with PBS (without Ca^2+/Mg^2+). Fluorescence intensity was quantified before the first wash and after the fifth wash to determine percent cell adherence, with all values then normalized to untreated controls. Fluorescence intensity was measured from the top of the plate at 485 nm excitation, 520 nm emission using a fluorescence microplate reader (Biotek HT Synergy)."}, "[4]": {"tested_on": "p38α and p38β2", "settings": "cited from earlier work"}, "[5]": {"target": "iNOS (Mus musculus, UniProt P29477)", "sequence (P29477 whole entry)": "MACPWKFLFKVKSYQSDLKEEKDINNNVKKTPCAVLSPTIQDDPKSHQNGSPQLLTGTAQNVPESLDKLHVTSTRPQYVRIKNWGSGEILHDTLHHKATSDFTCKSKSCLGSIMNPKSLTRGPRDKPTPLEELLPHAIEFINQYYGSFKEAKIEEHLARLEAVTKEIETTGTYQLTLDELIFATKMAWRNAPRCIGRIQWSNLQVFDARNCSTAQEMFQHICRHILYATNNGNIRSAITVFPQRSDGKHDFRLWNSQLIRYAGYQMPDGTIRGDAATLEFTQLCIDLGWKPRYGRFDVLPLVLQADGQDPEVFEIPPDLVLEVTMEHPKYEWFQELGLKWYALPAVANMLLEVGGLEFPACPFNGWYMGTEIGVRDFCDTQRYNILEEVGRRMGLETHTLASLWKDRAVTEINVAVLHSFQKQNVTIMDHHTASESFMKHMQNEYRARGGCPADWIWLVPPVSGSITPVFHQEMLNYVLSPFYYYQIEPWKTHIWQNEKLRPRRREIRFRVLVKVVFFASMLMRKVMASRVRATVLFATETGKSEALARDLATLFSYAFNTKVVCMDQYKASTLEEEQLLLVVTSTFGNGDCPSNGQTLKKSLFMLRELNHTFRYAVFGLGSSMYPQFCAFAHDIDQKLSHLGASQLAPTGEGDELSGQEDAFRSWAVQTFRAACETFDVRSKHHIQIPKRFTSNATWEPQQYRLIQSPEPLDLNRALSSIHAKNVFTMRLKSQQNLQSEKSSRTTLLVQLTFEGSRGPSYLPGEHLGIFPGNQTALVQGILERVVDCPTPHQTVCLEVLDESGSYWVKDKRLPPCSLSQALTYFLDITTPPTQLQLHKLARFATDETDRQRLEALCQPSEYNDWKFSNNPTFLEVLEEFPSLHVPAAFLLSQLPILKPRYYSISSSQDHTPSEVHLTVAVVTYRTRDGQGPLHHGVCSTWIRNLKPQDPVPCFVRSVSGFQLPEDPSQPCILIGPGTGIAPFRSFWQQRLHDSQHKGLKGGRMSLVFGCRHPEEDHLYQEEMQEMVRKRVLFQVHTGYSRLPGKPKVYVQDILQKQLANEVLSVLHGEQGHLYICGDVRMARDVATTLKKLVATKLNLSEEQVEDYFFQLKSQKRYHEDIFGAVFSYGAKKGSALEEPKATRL", "settings": "cited from earlier work"}, "[6]": {"tested_on": "C57B6/J mice with angiotensin II minipump", "assay": "Tail cuff blood pressure response to acetylcholine, angiotensin II model of hypertension", "type": "in vivo", "settings": "10 mg/kg/d by gavage vs vehicle", "protocol": "To determine the effect of sepiapterin in a mouse model of hypertension, C57B6/J mice were implanted with an angiotensin II minipump for 2 weeks to induce hypertension. The animals were then treated with either sepiapterin 10 mg/kg/d by gavage or vehicle. A tail cuff measure of blood pressure was taken followed by injection of acetylcholine and a second tail cuff measure of blood pressure."}, "[7]": {"tested_on": "intracellular BH4", "settings": "compared with exogenous BH4 (Crabtree 2011); cited from earlier work"}, "[8]": {"tested_on": "humans with phenylketonuria and tetrahydrobiopterin deficiencies", "settings": "humans with phenylketonuria and tetrahydrobiopterin deficiencies (Smith 2019); cited from earlier work"}, "[9]": {"tested_on": "human umbilical vein endothelial cells (HUVECs)", "assay": "Measurement of nitric oxide production (DAF-FM fluorescence, flow cytometry) in serum-cultured HUVECs", "type": "cell-based", "settings": "for DAF-FM MFI, a marker of NO production: L-sep 5 μM 6 hours", "protocol": "Primary human umbilical vein endothelial cells from pooled donors were purchased from Lonza (Walkersville, Md., USA) and cultured according to the manufacturer's instructions in 5% CO2 at 37° C. in humidified air. Cells were cultured in endothelial cell basal medium-2 (EBM-2) supplemented with EBM-2 SingleQuot (Lonza), pH 7.6-8.0. Media was changed every other day until cells were 70%-80% confluent. HUVECs were sub-cultured using TryPLE Express, pH 8.0 (ThermoFisher Scientific, Waltham, Mass., USA). Cell growth was limited to 12 population doublings, and all experiments were carried out using cells between passages 3-5. For serum experiments, cells were cultured with 20%-50% serum for 6 or 24 hours prior to further analysis.\nFor real-time detection of NO production in HUVECs, 1.2×10^5 cells were seeded in a 12-well tissue culture plate. Following adherence, cells were serum starved for 6 hours in endothelial basal media (EBM) containing 0.2% fetal bovine serum (FBS). Cells were stimulated with either 50% healthy or SLE sera±L-sep (5 μM; 6 hours), the eNOS-specific inhibitor, Nω-Nitro-L-arginine (L-NNA, 10 μM; 30 min pre-incubation (Tocris; Bristol, UK)) or the NO donor 3,3′-diamino-4′-methoxyflavone (DD1, 10 μM, Tocris). Following stimulation, cells were washed twice with phosphate buffered saline (PBS) and loaded with 1 μM DAF-FM diacetate (4-amino-5-methylamino-2′,7′-difluorofluorescein diacetate, 1 μM) (ThermoFisher Scientific) in phenol red-free EBM for 30-45 min. […] A population of 2000-10 000 cells were gated to remove doublets and controls and analyzed based on their fluorescence intensities using a FACS Calibur flow cytometer (Becton Dickenson, San Diego, USA). The mean fluorescence intensity (MFI) was normalized to respective populations in unstimulated cells. In order to discriminate between NO and other gaseous molecules previously shown to augment DAF-FM fluorescence, a urate assay was performed to optimize the assay (data not shown)."}, "[10]": {"tested_on": "HUVECs / neutrophils", "assay": "Neutrophil adhesion assay on HUVECs", "type": "cell-based, human", "protocol": "HUVECs were plated at 5.0×10^4 cells/mL in a 24-well plate (Costar) and allowed to adhere overnight. HUVECs were serum starved for 3 hours in phenol-red free 0.2% FBS EBM media (Lonza) prior to activation with 10% sera for 4 hours. Tumor necrosis factor-α (100 ng/mL) was used as the positive control. Neutrophils isolated from healthy human blood as outlined previously were labelled with Calcein AM (Life Technologies) at 5×10^5 cells/mL. Neutrophils were washed gently four times in warm serum-free EBM culture media prior to co-culturing with HUVECs for 60 min after which non-adherent cells were removed by repeated gentle washing (four times) with EBM culture media. Fluorescence intensity was measured at 520 nM with a FLUOStar Omega microplate reader (Cary, N.C., USA), and images were captured using confocal microscopy. Data are reported as ratios of the number of neutrophils to the number of endothelial cells as averages from three different visual fields."}, "[11]": {"tested_on": "human renal glomerular endothelial cells (HRGEC)", "assay": "NO production (DAF-FM with urate) by HRGEC treated with LN serum", "type": "cell-based", "settings": "urate added, 5 μM L-Sepiapterin, 25 μM VAS2870", "protocol": "The inflammatory phenotype of HUVECs differs from microvascular endothelial cells and may not reflect mechanisms in glomerular endothelial cells. To confirm the uncoupling effects lead to functional changes in uncoupling and NO production by EC treated with LN serum in HRGEC, HRGEC as in FIG. 10 was treated with LN serum in a black walled 96-well plate. […] NO production was quantified using DAF-FM fluorescence with urate added to prevent ONOO— fluorescence. […] While not wishing to be bound to any particular theory, one possible explanation for this finding is that uncoupled NOS is a significant source of ROS in LN (Njoku, C. J. et al., 2005, J. Investig. Med., 53:347-52).\nHRGECs are plated at 3×10^4 cells per well in a 96-well black-walled plate and cultured in complete growth media at 37° C. in a humidified atmosphere with 5% CO2. Upon confluence, complete growth medium is removed, and cells washed in ECM-prf (phenol red free). Cells are incubated with 2 μM DAF-FM Diacetate for 60 minutes at 37° C., then cells washed in ECM-prf. […] 0.6 mM DPTA NONOate (Abcam) is a positive control, while L-NAME (100 μM) is a negative control. […] Plates are incubated for 30 minutes at 37° C. and read at 485/528 excitation/emission on a microplate reader (BioTek HT Synergy). […]"}, "[12]": {"tested_on": "BALB/c mice with Angiotensin II minipumps", "assay": "Systolic blood pressure in Angiotensin II minipump hypertension", "type": "in vivo", "protocol": "Hypertension was created in some BALB/c mice with Angiotensin II minipumps. Mice were treated half with CSNA-001 (L-sep) 8 days after the pumps were placed and baseline SBP checked. The decrease in systolic BP was significant in the treated mice but not the untreated (FIG. 21 and FIG. 22)."}, "[13]": {"tested_on": "TLR 7/9", "settings": "cited from earlier work"}}}
{"smiles": "Cc1c(F)cc(C(=O)NC2CC2)cc1-c1c(F)cn2c(C(C)(C)C)nnc2c1F", "note": "[AL 8697]", "values": [{"measurement": "IC50", "setting": "[1]", "result": 0.006, "unit": "µM"}]}
{"smiles": "COc1c(C)c2c(c(O)c1C/C=C(\\C)CCC(=O)OCCN1CCOCC1)C(=O)OC2", "note": "[CellCept, mycophenolate mofetil]", "values": [{"measurement": "neutrophil migration, dosing effects of medication", "setting": "[2]", "result": "No difference"}, {"measurement": "neutrophil adhesion, dosing effects of medication", "setting": "[3]", "result": "No difference"}]}
{"smiles": "Cc1ccccc1C(=O)c1ccc(Nc2ccc(Br)cc2N)cc1Cl", "note": "[EO1428]", "values": [{"measurement": "IC50", "setting": "[4]", "result": 0.074, "unit": "µM"}]}
{"smiles": "CC(=N)NCCCC[C@H](N)C(=O)O", "note": "[L-NIL]", "values": [{"measurement": "IC50", "setting": "[5]", "result": 3.3, "unit": "µM"}]}
{"smiles": "CC(O)C(=O)C1=Nc2c([nH]c(N)nc2=O)NC1", "note": "[L-sepiapterin, 2-amino-6-[-2-hydroxypropanoyl]-7,8-dihydro-1H-pteridin-4-one]", "values": [{"measurement": "endothelial function (difference in tail cuff pressure after acetylcholine)", "setting": "[6]", "result": "improves endothelial function"}, {"measurement": "intracellular BH4 levels", "setting": "[7]", "result": "more effectively than exogenous BH4"}, {"measurement": "safety profile", "setting": "[8]", "result": "favorable"}, {"measurement": "DAF-FM MFI, a marker of NO production", "setting": "[9]; SLE serum cultured HUVECs, 50% serum, vs SLE cultured cells without L-sepiapterin, p<0.01", "result": "significantly increased"}, {"measurement": "DAF-FM MFI, a marker of NO production", "setting": "[9]; control serum cultured HUVECs", "result": "not observed"}, {"measurement": "ratio in MFI-fold change between SLE serum+L-sepiapterin and SLE serum", "setting": "[9]; vs ratios in control and healthy serum culture conditions, p<0.001 and <0.01", "result": "significantly different"}, {"measurement": "neutrophil adhesion induced by SLE serum", "setting": "[10]; SLE serum cultured HUVECs", "result": "did not reverse neutrophil adhesion"}, {"measurement": "neutrophil adhesion", "setting": "[10]; cells cultured in EBM-2 media, p<0.05", "result": "reversed neutrophil adhesion"}, {"measurement": "NO production (DAF-FM fluorescence)", "setting": "[11]", "result": "increased more"}, {"measurement": "decrease in systolic BP", "setting": "[12]; treated mice, 20 mg/kg daily, Day 7 to Day 14, cuff pressure", "result": "significant"}, {"measurement": "mean blood pressure responses to acetyl choline", "setting": "[12]; treated vs untreated mice", "result": "significant differences"}, {"measurement": "differences in reduction of systolic blood pressure", "setting": "[12]; treated vs untreated mice, 20 mg/kg daily", "result": "about 8 mmHg"}]}
{"smiles": "NCCCC[C@H](N[C@@H](CCc1ccccc1)C(=O)O)C(=O)N1CCC[C@H]1C(=O)O", "note": "[Lisinopril]", "values": [{"measurement": "neutrophil migration, dosing effects of medication", "setting": "[2]", "result": "No difference"}, {"measurement": "neutrophil adhesion, dosing effects of medication", "setting": "[3]", "result": "No difference"}]}
{"smiles": "C[C@]12C=CC(=O)C=C1CC[C@@H]1[C@@H]2C(=O)C[C@@]2(C)[C@H]1CC[C@]2(O)C(=O)CO", "note": "[Prednisone, prednisone]", "values": [{"measurement": "neutrophil migration, dosing effects of medication", "setting": "[2]", "result": "No difference"}, {"measurement": "neutrophil adhesion, dosing effects of medication", "setting": "[3]", "result": "No difference"}]}
{"smiles": "c1ccc(Cn2nnc3c(Sc4nc5ccccc5o4)ncnc32)cc1", "note": "[VAS2870, reference compound]", "values": [{"measurement": "NO production (DAF-FM fluorescence)", "setting": "[11]", "result": "not effective"}]}
{"smiles": "CCN(CCO)CCCC(C)Nc1ccnc2cc(Cl)ccc12", "note": "(stereo not shown) [hydroxychloroquine]", "values": [{"measurement": "neutrophil migration, dosing effects of medication", "setting": "[2]", "result": "No difference"}, {"measurement": "neutrophil adhesion, dosing effects of medication", "setting": "[3]", "result": "No difference"}, {"measurement": "IC50", "setting": "[13]", "result": "~4", "unit": "µM"}]}
